From patent publication US8536132B2, “Lymphatic zip codes in tumors and pre-malignant lesions” (Sanford-Burnham Medical Research Institute, priority 2006, dated 2013)
Entries after “also recorded” stand apart in the source; their conditions may differ. Marks after values point to notes of the source that are not given here.

What was measured:
MMTV-PyMT breast tumors = assay: In vivo phage homing to MMTV-PyMT breast tumors; set-up: species or system mouse; settings: for phage homing to MMTV-PyMT breast tumors (in words): i.v. injected phage; for Fold over control phage / Specific Homing: phage homing in vivo, MMTV-PyMT breast tumors
Experimental: (§1) The following cell lines were maintained in DMEM supplemented with 10% FCS: C8161 human melanoma, MDA-MB-435 human breast cancer, KRIB human osteosarcoma, and human prostate cancer cells PPC1, DU145. LNCaP human prostate cancer cell line was grown in RPMI 1640 medium with 10 mM HEPES, 1 mM sodium pyruvate and 1.5 g/L sodium bicarbonate supplemented with 10% FCS. M12 human prostate cancer cell line was cultured in RPMI 1640 with 5 μg/ml insulin-transferrin-sodium selenite (ITS), 2.5 μg/ml fungizone, 50 μg/ml gentamycin, 0.2 μM dexamethasone, 10 ng/ml epidermal growth factor (EGF), and 5% FCS (Bae et al., 1998). To produce tumors, nude BALB/c and C56BL/6 mice were subcutaneously (C8161, KRIB, and PPC1) or orthotopically ([…], PPC1, DU145, M12, and LNCaP) injected with 1×10^6 tumor cells. Transgenic mouse tumor models included TRAMP prostate cancer, MMTV-PyMT breast cancer, and K14-HPV16 cervical cancer. To initiate cervical carcinogenesis, female K14-HPV16 mice (Arbeit et al., 1994) were treated with 17β-estradiol (E2; (Arbeit et al., 1996; Giraudo et al., 2004). Briefly, one-month-old virgin female transgenic (heterozygous K14-HPV16, 1203#1) and nontransgenic (FVB/n) mice were anesthetized with isoflurane, and continuous release pellets that deliver E2 at doses of 0.05 mg over 60 days (Innovative Research of America, Sarasota, Fla., USA) were implanted subcutaneously in the dorsal back skin. Subsequent pellets were implanted at 3 and 5 months of age for a total of 6 months of hormone treatment. K14-HPV16 mice were maintained in the FVB/n background (FVB/n; The Jackson Laboratory). The mice were maintained in accordance with the University of California, San Francisco (UCSF) institutional guidelines governing the care of laboratory mice. The animal experimentation was approved by Animal Research Committees at UCSF or The Burnham Institute.
(§2) In vivo homing specificity of phage was tested as described (Hoffman, 2004). Briefly, mice bearing tumors were anesthetized and intravenously injected with 5×10^9 pfu of phage. After 7 min, the mice were perfused through the heart with PBS containing 0.5% BSA. The tumor and control organs were dissected from each mouse and the phage were rescued and tittered. For histology analysis, the mice were perfused with 4% PFA 30 min after the injection of phage. Tissues were embedded in Tissue-Tek O.C.T. and 5 μm sections were prepared for phage immunostaining.

TRAMP prostate tumors [1] = assay: In vivo phage homing to TRAMP prostate tumors; set-up: species or system mouse; settings: for Fold over control phage / Specific Homing: phage homing in vivo, TRAMP prostate tumors; for phage homing to TRAMP prostate tumors (in words): i.v. injected phage
Experimental: as §1, §2

[2] = test system: K14-HPV16/E2 cervical tumors; assay: In vivo phage homing to K14-HPV16/E2 cervical tumors; set-up: species or system mouse; settings: for phage homing to K14-HPV16/E2 cervical tumors (in words): i.v. injected phage; for Fold over control phage / Specific Homing: phage homing in vivo, K14-HPV16/E2 cervical cancer / cervical tumors
Experimental: as §1, §2

TRAMP PIN lesions = assay: In vivo phage homing to TRAMP pre-malignant (PIN) lesions; set-up: species or system mouse; settings: for phage homing to TRAMP pre-malignant lesions (in words): i.v. injected phage
Experimental: as §1, §2

[3] = test system: MMTV-PyMT premalignant lesions; assay: In vivo phage homing to MMTV-PyMT premalignant lesions; set-up: species or system mouse
Experimental: as §1
In vivo homing specificity of phage was tested as described (Hoffman, 2004). Briefly, mice bearing tumors were anesthetized and intravenously injected with 5×10^9 pfu of phage. […]

normal tissues = assay: In vivo phage homing to normal and control tissues; set-up: species or system mouse; settings: for phage in other tissues versus nonrecombinant control phage: lymph nodes, kidneys, lungs, skin, gut
Experimental: as §2

TRAMP prostate tumors [4] = settings: for fluorescent peptide in TRAMP prostate tumors (in words): fluorescein-conjugated peptide i.v.
Experimental: (§3) Custom immunization to produce a rabbit antiserum against mouse Prox-1 was performed by Proteintech Inc. New Zealand White rabbits were immunized with a fusion protein of GST-C-terminal fragment of Prox-1 protein. The antibody was affinity purified on the fusion protein and absorbed with GST. […] Antibodies against the lymphatic markers anti-LYVE-1 (Laakkonen et al., 2002) and anti-podoplanin (kindly provided by T. Petrova and K. Alitalo), rat monoclonal anti-mouse CD31 (BD Pharmingen), rat anti-mouse MECA-32 (Pharmingen), rabbit polyclonal anti-T7 phage, and rat anti-mouse VEGFR3 were used for immunohistochemical staining of frozen tissue sections as described (Joyce et al., 2003; Laakkonen et al., 2002). The corresponding secondary antibodies were added and incubated for 1 hr at room temperature: AlexaFluor-488 goat anti-rat or rabbit IgG (1:1000; Molecular Probes, Eugene, Oreg.), AlexaFluor-594 goat anti-rat or rabbit IgG (1:1000, Molecular Probes), AlexaFluor-594 donkey anti-mouse or goat IgG (1:1000, Molecular Probes), and AlexaFluor-488 donkey anti-mouse or goat IgG (1:1000; Molecular Probes), respectively. The slides were washed three times with PBS and mounted in Vectashield Mounting Medium with DAPI (Vector Laboratories, Burlingame, Calif.). Blood vessels were also visualized by intravenously injecting Lycopersicon esculentum (tomato) lectin conjugated to fluorescein (100 μg of lectin in 200 μl of PBS; Vector Laboratories). […] The injected peptides were allowed to circulate 30 min to 2 hrs, and the mice were perfused with 4% paraformaldehyde through the left ventricle of heart. Tissues were dissected and frozen in OCT embedding medium (Tissue-Tek, Elkhart, Ind.). The frozen sections were prepared for immunohistological analysis.

[5] = test system: pre-malignant TRAMP lesions
Experimental: as §3

[6] = test system: human prostate tumor sections; assay: Phage overlay of tissue sections from human prostate cancer; settings: two primary human prostate cancers
Experimental: The frozen sections of human prostate tumor specimens were obtained from Dr. Daniel Mercola (Sidney Kimmel Cancer Center, La Jolla, Calif.). The sections (5 μm) were preincubated with blocking buffer (5% normal goat serum and 0.5% BSA in 1×PBS) for 1 hr at room temperature, washed three times with diluted blocking buffer (1:10), and phage (3×10^9 pfu) were incubated on the section for 4 hrs. After 3 washes, rabbit anti-phage antibody (10 μg/ml) was added and the phage incubated for 2 hrs. The slides were washed and incubated with AlexaFluor-488 goat anti-rabbit IgG for 1 hr. After further washes, the slides were mounted with Vectashield (VECTOR, Burlingame, Calif.).

C8161 xenografts = assay: In vivo phage homing to C8161 xenograft tumors; set-up: species or system mouse
Experimental: as §1, §2

KRIB xenografts = assay: In vivo phage homing to KRIB xenografts; set-up: species or system mouse
Experimental: as §1, §2

[7] = test system: K14-HPV16/E2 cervical lesions; assay: Distribution of fluorescent peptides in K14-HPV16/E2 mice with cervical lesions; type: in vivo, mouse; settings: labeled peptide i.v.
Experimental: The frozen sections were prepared for immunohistological analysis.

[8] = phage homing in vivo, TRAMP PIN lesions
[9] = phage homing in vivo, MMTV-PyMT premalignant lesions
[10] = phage and fluorescein-labeled peptide, TRAMP pre-malignant lesions
[11] = phage homing in vivo, C8161 (s.c.) xenografts
[12] = phage homing in vivo, KRIB xenografts
[13] = phage and fluorescein-labeled peptide, TRAMP tumors

For “CAGRRSAYC [homing peptide for pre-malignant TRAMP prostate lesions]”, the “phage homing to MMTV-PyMT breast tumors (in words)” value (MMTV-PyMT breast tumors) was “little homing of the phage”, the “Fold over control phage” value (MMTV-PyMT breast tumors) was 4 fold and the “Specific Homing” value (MMTV-PyMT breast tumors) was “No”. The “Fold over control phage” value (TRAMP prostate tumors [1]) was 4 fold, the “Specific Homing” value (TRAMP prostate tumors [1]) was “No” and the “phage homing to K14-HPV16/E2 cervical tumors (in words)” value [2] was “little homing of the phage”. The “Fold over control phage” value [2] was 4 fold, the “Specific Homing” value [2] was “No” and the “phage homing to TRAMP pre-malignant lesions (in words)” value (TRAMP PIN lesions; listed as AGR phage) was “selectively home to pre-malignant lesions; also recorded: homed significantly more; also recorded: homes only to pre-malignant lesions; also recorded: marked preference”. For the same sequence, the “enrichment to pre-malignant TRAMP lesions relative to nonrecombinant phage” value (TRAMP PIN lesions; phage clones tested in vivo individually) was 24 fold, the “Fold over control phage” value (TRAMP PIN lesions; [8]) was 18 fold and the “Specific Homing” value (TRAMP PIN lesions; [8]) was “Yes”. For the same sequence, the “phage homing to MMTV-PyMT premalignant lesions (in words)” value ([3]; i.v. injected phage) was “little homing of the phage”, the “Fold over control phage” value [3, 9] was 2 fold and the “Specific Homing” value [3, 9] was “No”. The “phage in other tissues versus nonrecombinant control phage” value (normal tissues) was “Neither phage was found in other tissues”, the “fluorescent peptide in TRAMP prostate tumors (in words)” value (TRAMP prostate tumors [4]) was “little or no peptide was seen” and the “co-localization with lymphatic markers podoplanin, VEGFR3, LYVE-1, Prox-1” value [5, 10] was “substantial co-localization”. The “localization versus blood vessel markers CD31 and MECA-32” value [5, 10] was “entirely distinct” and the “phage binding to human prostate tumor sections (in words)” value [6] was “did not bind”.
“CREAGRKAC [homing peptide for prostate tumor lymphatics]” was tested, and the “phage homing to C8161 tumors (in words)” value (C8161 xenografts; i.v. injected phage, C8161 xenograft mice) was “negative for REA binding”, the “Fold over control phage” value (C8161 xenografts; [11]) was 5 fold and the “Specific Homing” value (C8161 xenografts; [11]) was “No”. For the same sequence, the “phage homing to KRIB xenografts (in words)” value (KRIB xenografts; i.v. injected phage) was “negative for REA binding”, the “Fold over control phage” value (KRIB xenografts; [12]) was 7^‡ fold and the “Specific Homing” value (KRIB xenografts; [12]) was “Yes”. For the same sequence, the “phage homing to MMTV-PyMT breast tumors (in words)” value (MMTV-PyMT breast tumors) was “negative for REA binding”, the “Fold over control phage” value (MMTV-PyMT breast tumors) was 8^‡ fold and the “Specific Homing” value (MMTV-PyMT breast tumors) was “Yes”. For the same sequence, the “enrichment in TRAMP tumors relative to nonrecombinant phage” value (TRAMP prostate tumors [1]; i.v. injected phage clone) was 50 fold, the “phage homing to TRAMP prostate tumors (in words)” value (TRAMP prostate tumors [1]; listed as REA phage) was “homes to tumors” and the “phage homing to TRAMP prostate tumors (in words)” value (TRAMP prostate tumors [1]; listed as REA-phage) was “accumulate in TRAMP tumors; also recorded: Significant phage homing”. The “Fold over control phage” value (TRAMP prostate tumors [1]) was 46 fold, the “Specific Homing” value (TRAMP prostate tumors [1]) was “Yes” and the “phage homing to K14-HPV16/E2 cervical tumors (in words)” value [2] was “slightly positive”. For the same sequence, the “Fold over control phage” value [2] was 7^‡ fold, the “Specific Homing” value [2] was “Yes” and the “phage homing to TRAMP pre-malignant lesions (in words)” value (TRAMP PIN lesions) was “not to pre-malignant lesions or normal prostate”. For the same sequence, the “phage in other tissues versus nonrecombinant control phage” value (normal tissues) was “Neither phage was found in other tissues”, the “phage homing to normal prostate” value (normal tissues; tumor-free littermates of TRAMP mice) was “not to pre-malignant lesions or normal prostate” and the “fluorescent peptide in TRAMP prostate tumors (in words)” value (TRAMP prostate tumors [4]) was “accumulated in prostate tumors”. For the same sequence, the “overlap with podoplanin-positive lymphatic vessels” value (TRAMP prostate tumors [4]; fluorescein-conjugated peptide, prostate tumors) was 90%, the “co-localization with lymphatic markers podoplanin, VEGFR3, LYVE-1, Prox-1” value (TRAMP prostate tumors [4]; [13]) was “substantial co-localization” and the “localization versus blood vessel markers CD31 and MECA-32” value (TRAMP prostate tumors [4]; [13]) was “entirely distinct”. For the same sequence, the “fluorescent peptide in TRAMP pre-malignant lesions (in words)” value ([5]; fluorescein-conjugated peptide i.v.) was “negative”, the “fluorescent peptide in K14-HPV16/E2 cervical lesions/tumors (in words)” value [7] was “slightly positive” and the “phage binding to human prostate tumor sections (in words)” value [6] was “recognizes the lymphatics of human prostate tumors”.
